PubChem BioAssay AID328 (DTP/NCI, 2004)
Inconclusive results and toxic doses are left out. Rule for the calls: active = survival T/C of 150% or more; inactive = T/C below 125% in these data.

System: BDF1 mice, P388 leukemia ip, median survival T/C
Test: NCI In Vivo Anticancer Drug Screen. Data for tumor model P388 Leukemia (intraperitoneal) in B6D2F1 (BDF1) mice
Settings: endpoint: median survival time, higher = longer survival
Summary of the method: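 Steps: implant the tumour, treat one group with compound and another with vehicle, record survival, then divide treated by control.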

[1] = dose: 50.0 mg/kg/injection, schedule: Q01DX005 (ip), vehicle: saline with Tween-80
[2] = dose: 100.0 mg/kg/injection, schedule: Q01DX005 (ip), vehicle: saline with Tween-80
[3] = dose: 100.0 mg/kg/injection, schedule: Q04DX003 (ip), vehicle: Klucel (hydroxypropylcellulose) (HPC)
[4] = dose: 200.0 mg/kg/injection, schedule: Q04DX003 (ip), vehicle: Klucel (hydroxypropylcellulose) (HPC)
[5] = dose: 100.0 mg/kg/injection, schedule: Q01DX009 (ip), vehicle: saline with Tween-80
[6] = dose: 100.0 mg/kg/injection, schedule: Q04DX003 (ip), vehicle: saline
[7] = dose: 200.0 mg/kg/injection, schedule: Q01DX009 (ip), vehicle: saline with Tween-80
[8] = dose: 200.0 mg/kg/injection, schedule: Q04DX003 (ip), vehicle: saline
[9] = dose: 400.0 mg/kg/injection, schedule: Q04DX003 (ip), vehicle: saline
[10] = dose: 25.0 mg/kg/injection, schedule: Q04DX003 (ip), vehicle: saline
[11] = dose: 100.0 mg/kg/injection, schedule: Q01DX009 (ip), vehicle: saline
[12] = dose: 200.0 mg/kg/injection, schedule: Q01DX009 (ip), vehicle: saline
[13] = dose: 400.0 mg/kg/injection, schedule: Q01DX009 (ip), vehicle: saline
[14] = dose: 100.0 mg/kg/injection, schedule: Q04DX003 (ip), vehicle: saline with Tween-80
[15] = dose: 200.0 mg/kg/injection, schedule: Q04DX003 (ip), vehicle: saline with Tween-80
[16] = dose: 400.0 mg/kg/injection, schedule: Q04DX003 (ip), vehicle: saline with Tween-80
[17] = dose: 25.0 mg/kg/injection, schedule: Q01DX009 (ip), vehicle: saline with Tween-80
[18] = dose: 50.0 mg/kg/injection, schedule: Q01DX009 (ip), vehicle: saline with Tween-80
[19] = dose: 50.0 mg/kg/injection, schedule: Q04DX003 (ip), vehicle: saline

Measured: T/C

CC(=O)O[C@@]1(C)C(=O)OCC2=CCN3CC[C@@H](OC(=O)[C@H](C)[C@]1(C)OC(C)=O)[C@@H]23
inactive: dose: 25.0 mg/kg/injection, schedule: Q01DX010 (ip), vehicle: carboxymethylcellulose (CMC) 105 % of control | dose: 50.0 mg/kg/injection, schedule: Q01DX010 (ip), vehicle: carboxymethylcellulose (CMC) 90 % of control

N/C(=N\OC(=O)NC(Cl)=C(Cl)Cl)c1ccc(Cl)cc1
inactive: [1] 92 % of control | [2] 114 % of control

O=C(CCl)Nc1ccc([As](=O)(O)O)cc1
inactive: dose: 12.5 mg/kg/injection, schedule: Q01DX009 (ip), vehicle: Klucel (hydroxypropylcellulose) (HPC) 100 % of control | dose: 25.0 mg/kg/injection, schedule: Q01DX009 (ip), vehicle: Klucel (hydroxypropylcellulose) (HPC) 100 % of control | dose: 50.0 mg/kg/injection, schedule: Q01DX009 (ip), vehicle: Klucel (hydroxypropylcellulose) (HPC) 90 % of control

Nc1c(Br)cc(Br)c(C(=O)O)c1Br
inactive: dose: 50.0 mg/kg/injection, schedule: Q04DX003 (ip), vehicle: Klucel (hydroxypropylcellulose) (HPC) 100 % of control | [3] 100 % of control | [4] 95 % of control

C1CCNCC1.O=C([CH-]C(=O)C(F)(F)F)c1ccc2c(c1)C(=O)c1ccccc1-2.O=C([CH-]C(=O)C(F)(F)F)c1ccc2c(c1)C(=O)c1ccccc1-2.O=C([CH-]C(=O)C(F)(F)F)c1ccc2c(c1)C(=O)c1ccccc1-2.O=C([CH-]C(=O)C(F)(F)F)c1ccc2c(c1)C(=O)c1ccccc1-2.[Eu+3]
inactive: dose: 100.0 mg/kg/injection, schedule: Q01DX009 (ip), vehicle: Klucel (hydroxypropylcellulose) (HPC) 102 % of control | dose: 200.0 mg/kg/injection, schedule: Q01DX009 (ip), vehicle: Klucel (hydroxypropylcellulose) (HPC) 102 % of control

C=CCN1C(=O)CN=C1SC(=O)Nc1ccc(Cl)cc1
inactive: [1] 97 % of control | [2] 97 % of control

CCSCCSCC
inactive: [5] 107 % of control | [6] 120 % of control | [7] 103 % of control | [8] 115 % of control | [9] 120 % of control

BrCc1cc2ccccc2cc1CBr
inactive: [10] 116 % of control

CS(=O)(=O)C(=Cc1ccccc1Cl)S(C)(=O)=O
inactive: [11] 104 % of control | [12] 118 % of control | [13] 121 % of control

O=C(O)C1C=CC(C(=O)O)CC1 (stereo not given)
inactive: [14] 95 % of control | [15] 93 % of control | [16] 93 % of control

CCOC(=O)C(O)c1cccc(OC)c1 (stereo not given)
inactive: [5] 100 % of control | dose: 100.0 mg/kg/injection, schedule: Q04DX003 (ip), vehicle: saline sonified 118 % of control | [7] 100 % of control | dose: 200.0 mg/kg/injection, schedule: Q04DX003 (ip), vehicle: saline sonified 100 % of control | dose: 400.0 mg/kg/injection, schedule: Q01DX009 (ip), vehicle: saline with Tween-80 104 % of control | dose: 400.0 mg/kg/injection, schedule: Q04DX003 (ip), vehicle: saline sonified 100 % of control

COC(=O)[C@@H](C)[C@@H](O)[C@@H](C)N
inactive: [14] 101 % of control | [15] 99 % of control | [16] 103 % of control

CCN(CC)CCCC(C)NC/C=C/CNC(C)CCCN(CC)CC (stereo not given)
inactive: dose: 0.78 mg/kg/injection, schedule: Q01DX009 (ip), vehicle: water 99 % of control | dose: 1.56 mg/kg/injection, schedule: Q01DX009 (ip), vehicle: water 91 % of control | dose: 3.12 mg/kg/injection, schedule: Q01DX009 (ip), vehicle: water 91 % of control | dose: 12.5 mg/kg/injection, schedule: Q01DX009 (ip), vehicle: water 86 % of control | dose: 25.0 mg/kg/injection, schedule: Q01DX009 (ip), vehicle: water 91 % of control | dose: 50.0 mg/kg/injection, schedule: Q01DX009 (ip), vehicle: water 99 % of control

COc1cc(-c2ccc(O)cc2)c(OC)c(O)c1-c1ccc(O)c(O)c1
inactive: dose: 1.25 mg/kg/injection, schedule: Q01DX009 (ip), vehicle: Klucel (hydroxypropylcellulose) (HPC) 97 % of control | dose: 2.5 mg/kg/injection, schedule: Q01DX009 (ip), vehicle: Klucel (hydroxypropylcellulose) (HPC) 96 % of control | dose: 5.0 mg/kg/injection, schedule: Q01DX009 (ip), vehicle: Klucel (hydroxypropylcellulose) (HPC) 98 % of control | dose: 10.0 mg/kg/injection, schedule: Q01DX009 (ip), vehicle: Klucel (hydroxypropylcellulose) (HPC) 95 % of control | dose: 20.0 mg/kg/injection, schedule: Q01DX009 (ip), vehicle: Klucel (hydroxypropylcellulose) (HPC) 97 % of control | dose: 40.0 mg/kg/injection, schedule: Q01DX009 (ip), vehicle: Klucel (hydroxypropylcellulose) (HPC) 97 % of control

Cc1c(C=[N+]2CCCCC2)c2ccccc2n1C
inactive: dose: 6.25 mg/kg/injection, schedule: Q01DX009 (ip), vehicle: saline with Tween-80 96 % of control | dose: 12.5 mg/kg/injection, schedule: Q01DX009 (ip), vehicle: saline with Tween-80 105 % of control | [17] 93 % of control | [18] 99 % of control

O=[N+]([O-])c1ccc(S(=O)(=O)c2ccccc2)c2nonc12
inactive: [17] 107 % of control | [18] 98 % of control

COc1cc2c3c(c1)-c1c(ccc(OC)c1Oc1nnnn1-c1ccccc1)CC3N(C)CC2 (stereo not given)
inactive: dose: 12.5 mg/kg/injection, schedule: Q04DX003 (ip), vehicle: saline 108 % of control | [10] 115 % of control | [19] 115 % of control | [6] 108 % of control | [8] 115 % of control

NC(=S)N/N=C\c1[nH]c(=O)nc2ccccc12
inactive: [3] 100 % of control | [4] 100 % of control | dose: 400.0 mg/kg/injection, schedule: Q04DX003 (ip), vehicle: Klucel (hydroxypropylcellulose) (HPC) 95 % of control

NC(Cc1c[nH]c2ccc(N(CCCl)CCCl)cc12)C(=O)O (stereo not given)
active: dose: 0.5 mg/kg/injection, schedule: Q01DX010 (ip), vehicle: saline 218 % of control | dose: 1.0 mg/kg/injection, schedule: Q01DX010 (ip), vehicle: saline 290 % of control

COc1ccc(C(C#N)CC(=O)c2ccc(OC)c(OCc3ccccc3)c2)cc1OC (stereo not given)
inactive: dose: 6.25 mg/kg/injection, schedule: Q01DX009 (ip), vehicle: saline 90 % of control | dose: 12.5 mg/kg/injection, schedule: Q01DX009 (ip), vehicle: saline 95 % of control | dose: 25.0 mg/kg/injection, schedule: Q01DX009 (ip), vehicle: saline 91 % of control | [10] 114 % of control | dose: 50.0 mg/kg/injection, schedule: Q01DX009 (ip), vehicle: saline 99 % of control | [19] 96 % of control | [11] 90 % of control | [6] 96 % of control | [12] 86 % of control | [8] 107 % of control | [13] 95 % of control | [9] 100 % of control

C=C(C)C12OC3(c4ccccc4)OC1C1C4OC4(CO)C(O)C4(O)C(=O)C(C)=CC4C1(O3)C(C)C2OC(=O)/C=C/C=C/C=C/CCC (stereo not given)
inactive: dose: 6.3 micrograms/kg/injection, schedule: Q## X009 (ip), vehicle: saline with Tween-80 109 % of control | dose: 12.5 micrograms/kg/injection, schedule: Q## X009 (ip), vehicle: saline with Tween-80 106 % of control | dose: 25.0 micrograms/kg/injection, schedule: Q## X009 (ip), vehicle: saline with Tween-80 109 % of control | dose: 50.0 micrograms/kg/injection, schedule: Q## X009 (ip), vehicle: saline with Tween-80 106 % of control
active: dose: 100.0 micrograms/kg/injection, schedule: Q## X009 (ip), vehicle: saline with Tween-80 168 % of control
